# In ChEMBL document CHEMBL3797035 (Bioorg Med Chem, 2016):
# How the values were obtained:
# [1] = target: Beta-1 adrenergic receptor (Mus musculus, UniProt P34971); assay: Displacement of [3H]CGP12177 from mouse beta1 receptor expressed in HEK293 cells; type: cell-based
# [2] = target: T1, Beta-2 adrenergic receptor (Homo sapiens, UniProt P07550); assay: Displacement of [3H]CGP12177 from human beta2 receptor expressed in CHO cells; type: cell-based
# D(1A) dopamine receptor = D(1A) dopamine receptor (Homo sapiens, UniProt P21728); assay: Displacement of [3H]SCH23390 from human D1 receptor expressed in HEK293 cells; type: cell-based
# Chain of D(1A) dopamine receptor (P21728 whole entry): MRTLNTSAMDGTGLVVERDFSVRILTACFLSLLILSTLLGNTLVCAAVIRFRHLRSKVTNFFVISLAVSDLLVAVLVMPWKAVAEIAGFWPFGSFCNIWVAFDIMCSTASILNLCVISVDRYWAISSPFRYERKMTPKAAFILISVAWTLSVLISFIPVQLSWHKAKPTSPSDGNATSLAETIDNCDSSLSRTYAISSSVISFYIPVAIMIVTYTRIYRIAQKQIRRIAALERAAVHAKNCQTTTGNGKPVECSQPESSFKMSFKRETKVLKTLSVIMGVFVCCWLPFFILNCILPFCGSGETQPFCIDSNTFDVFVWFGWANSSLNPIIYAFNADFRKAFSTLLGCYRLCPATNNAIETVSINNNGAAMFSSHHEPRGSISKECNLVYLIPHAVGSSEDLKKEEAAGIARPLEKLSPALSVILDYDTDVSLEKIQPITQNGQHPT
# D(2) dopamine receptor [3] = target: T2, D(2) dopamine receptor (Homo sapiens, UniProt P14416); assay: Displacement of [3H]spiperone from human D2L receptor expressed in CHO cells; type: cell-based
# T2 sequence (P14416 whole entry): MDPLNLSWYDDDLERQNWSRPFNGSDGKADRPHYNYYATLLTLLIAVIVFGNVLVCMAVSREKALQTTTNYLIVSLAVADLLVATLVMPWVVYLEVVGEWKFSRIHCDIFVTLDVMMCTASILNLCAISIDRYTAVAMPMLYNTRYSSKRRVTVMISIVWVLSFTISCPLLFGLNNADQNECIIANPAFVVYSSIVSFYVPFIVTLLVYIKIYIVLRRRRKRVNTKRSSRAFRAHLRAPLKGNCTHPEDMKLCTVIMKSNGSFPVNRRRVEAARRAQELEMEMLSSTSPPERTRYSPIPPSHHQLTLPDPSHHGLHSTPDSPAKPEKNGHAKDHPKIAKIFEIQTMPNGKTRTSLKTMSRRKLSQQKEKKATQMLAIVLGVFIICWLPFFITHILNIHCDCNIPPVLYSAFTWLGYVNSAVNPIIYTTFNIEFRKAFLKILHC
# D(2) dopamine receptor [4] = target: T2, D(2) dopamine receptor; assay: Displacement of [3H]spiperone from human D2S receptor expressed in CHO cells; type: cell-based
# D(3) dopamine receptor = D(3) dopamine receptor (Homo sapiens, UniProt P35462); assay: Displacement of [3H]spiperone from human D3 receptor expressed in CHO cells; type: cell-based
# Chain of D(3) dopamine receptor (P35462 whole entry): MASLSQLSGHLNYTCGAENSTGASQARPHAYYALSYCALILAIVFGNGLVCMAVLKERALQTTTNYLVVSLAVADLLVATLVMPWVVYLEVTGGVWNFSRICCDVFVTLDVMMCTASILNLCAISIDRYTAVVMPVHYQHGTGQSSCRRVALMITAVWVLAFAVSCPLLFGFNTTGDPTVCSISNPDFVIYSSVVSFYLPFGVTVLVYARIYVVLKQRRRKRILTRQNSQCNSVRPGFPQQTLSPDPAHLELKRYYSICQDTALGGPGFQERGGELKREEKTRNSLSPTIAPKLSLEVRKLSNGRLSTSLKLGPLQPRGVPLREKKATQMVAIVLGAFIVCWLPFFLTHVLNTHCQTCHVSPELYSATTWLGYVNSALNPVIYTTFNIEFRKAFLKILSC
# D(4) dopamine receptor = target: T3, D(4) dopamine receptor (Homo sapiens, UniProt P21917); assay: Displacement of [3H]spiperone from human D4.4 receptor expressed in CHO cells; type: cell-based
# T3 sequence (P21917 whole entry): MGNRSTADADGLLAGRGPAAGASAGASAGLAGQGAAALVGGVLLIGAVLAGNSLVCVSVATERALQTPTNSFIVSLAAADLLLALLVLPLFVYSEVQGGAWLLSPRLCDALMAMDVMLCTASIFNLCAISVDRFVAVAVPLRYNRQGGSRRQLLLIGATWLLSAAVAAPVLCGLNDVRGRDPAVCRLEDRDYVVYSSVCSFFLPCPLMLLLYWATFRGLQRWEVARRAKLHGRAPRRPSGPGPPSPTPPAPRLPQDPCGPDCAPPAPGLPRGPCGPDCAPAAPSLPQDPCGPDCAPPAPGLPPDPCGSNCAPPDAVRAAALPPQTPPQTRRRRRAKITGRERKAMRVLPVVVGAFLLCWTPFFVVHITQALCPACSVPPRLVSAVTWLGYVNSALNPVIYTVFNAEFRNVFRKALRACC
# [5] = Displacement of [3H]RX821002 from alpha-2 receptor in porcine cortical membranes; type: cell membranes, Sus scrofa
# [6] = target: T1, Beta-2 adrenergic receptor; assay: Agonist activity at human beta2 receptor expressed in HEK293 cells cotransfected with Gqs5 protein assessed as [3H]IP3 accumulation after 120 mins by scintillation counting assay in presence of myo-[3H]-inositol; type: functional, cell-based
# [7] = target: T1, Beta-2 adrenergic receptor; assay: Agonist activity at PK-tagged beta2 receptor (unknown origin) transfected in HEK293 cells after 90 mins by beta-arrestin assay; type: cell-based
# [8] = Displacement of [3H]prazosine from alpha-1 receptor in porcine cortical membranes; type: cell membranes, Sus scrofa
# D(2) dopamine receptor [9] = target: T2, D(2) dopamine receptor; assay: Agonist activity at human D2S receptor expressed in HEK293 cells cotransfected with Gqi5 protein assessed as [3H]IP3 accumulation after 120 mins by scintillation counting assay in presence of myo-[3H]-inositol; type: functional, cell-based
# D(2) dopamine receptor [10] = target: T2, D(2) dopamine receptor; assay: Agonist activity at ARMS2-PK-tagged D2S receptor (unknown origin) transfected in HEK293 cells after 5 hrs by beta-arrestin assay; type: cell-based
# Homo sapiens = organism: Homo sapiens; assay: Selectivity index, ratio of Ki for human D2S receptor to Ki for human beta2 receptor
# T1 sequence (P07550 whole entry): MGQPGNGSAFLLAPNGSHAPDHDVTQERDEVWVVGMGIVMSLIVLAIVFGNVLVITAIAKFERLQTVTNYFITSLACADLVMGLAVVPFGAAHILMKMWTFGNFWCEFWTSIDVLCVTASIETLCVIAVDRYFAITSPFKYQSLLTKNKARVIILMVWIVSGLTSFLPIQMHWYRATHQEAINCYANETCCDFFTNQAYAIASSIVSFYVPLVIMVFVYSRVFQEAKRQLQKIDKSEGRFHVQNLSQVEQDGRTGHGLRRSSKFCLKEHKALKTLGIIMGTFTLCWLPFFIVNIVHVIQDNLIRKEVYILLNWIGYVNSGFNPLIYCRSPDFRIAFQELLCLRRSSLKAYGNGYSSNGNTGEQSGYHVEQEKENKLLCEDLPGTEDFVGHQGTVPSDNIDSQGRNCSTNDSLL
# Chain of Beta-1 adrenergic receptor (P34971 whole entry): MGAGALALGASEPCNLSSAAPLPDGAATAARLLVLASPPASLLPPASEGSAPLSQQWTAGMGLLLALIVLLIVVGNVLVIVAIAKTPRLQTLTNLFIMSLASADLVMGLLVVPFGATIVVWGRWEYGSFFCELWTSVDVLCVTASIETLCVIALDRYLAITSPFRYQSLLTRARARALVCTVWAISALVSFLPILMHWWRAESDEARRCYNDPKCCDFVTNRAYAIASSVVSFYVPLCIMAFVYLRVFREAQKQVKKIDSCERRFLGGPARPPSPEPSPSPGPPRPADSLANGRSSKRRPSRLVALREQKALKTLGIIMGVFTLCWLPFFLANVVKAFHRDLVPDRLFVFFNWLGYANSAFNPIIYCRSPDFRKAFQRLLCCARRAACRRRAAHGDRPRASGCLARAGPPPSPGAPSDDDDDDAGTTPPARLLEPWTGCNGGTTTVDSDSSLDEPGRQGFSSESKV
SMILES,Ki [1] [nM],Ki [2] [nM],Ki (D(1A) dopamine receptor) [nM],Ki (D(2) dopamine receptor [3]) [nM],Ki (D(2) dopamine receptor [4]) [nM],Ki (D(3) dopamine receptor) [nM],Ki (D(4) dopamine receptor) [nM],Ki [5] [nM],EC50 [6] [nM],EC50 [7] [nM],Ki [8] [nM],EC50 (D(2) dopamine receptor [9]) [nM],EC50 (D(2) dopamine receptor [10]) [nM],Ratio Ki (Homo sapiens)
COc1cc(CCNC[C@@H](O)c2ccc(O)c(O)c2)ccc1OCCCc1ccccc1,530,47,2900,1900,1700,660,1000,2500,2600,650,,,,
CCCN(CCC)[C@@H]1CCc2ccc(O)cc2C1,,86000,,,,,,,,,,,,
COc1ccccc1OCCNC[C@@H](O)c1ccc(O)c(O)c1,1500,850,430,350,200,610,240,760,1400,2200,19,,,
OCc1cc(C(O)CNCCCCCCOCCCCc2ccccc2)ccc1O (centres undefined) [SALMETEROL],,,,,32000,,,,,,,,,
COc1ccccc1OCCNC[C@@H](O)COc1cccc2[nH]c3ccccc3c12 [(R)-Carvedilol],,,,,26,,,,,,,,,
NC[C@H](O)c1ccc(O)c(O)c1 [NOREPINEPHRINE],,,,,1300,,,,,,,,,
COc1ccccc1OCCNCCc1ccc(O)c(O)c1,5000,610,210,85,48,25,4.5,390,720,,4.7,25,,
CNC[C@H](O)c1ccc(O)c(O)c1 [EPINEPHRINE],,,,,910,,,,,,,,,
CC(C)NCC(O)c1ccc(O)c(O)c1 (centres undefined) [ISOPROTERENOL],,,> 50000,48000,12000,4700,2900,5700,,,78000,,,
COc1cc(CCNCCc2ccc(O)c(O)c2)ccc1OCCCc1ccccc1,2300,53,860,63,120,12,38,810,47000,,400,110,2600,
COc1cc(CCNCCc2ccc(O)c3[nH]c(=O)ccc23)ccc1OCCCc1ccccc1,150,6.3,2800,64,160,18,900,13000,,,920,17,240,
CCCN[C@H]1CCc2nc(N)sc2C1 [PRAMIPEXOLE],,100000,,,,,,,,,,,,
COc1cc(CCNC[C@H](O)c2ccc(O)c(O)c2)ccc1OCCCc1ccccc1,85,18,430,110,67,62,140,1200,5100,260,16,200,,
COc1cc(CCNC[C@@H](O)c2ccc(O)c3c2OCC(=O)N3)ccc1OCCCc1ccccc1,180,13,2800,310,96,400,5400,2200,1000,580,1100,7.3,8800,
CCCN(CCC)[C@H]1CCc2c(O)cccc2C1,,40000,,,,,,,,,,,,
COc1cc(CCNC[C@H](O)c2ccc(O)c3[nH]c(=O)ccc23)ccc1OCCCc1ccccc1,5.8,0.48,11000,5700,3200,1700,3300,,6.2,22,1400,,,
COc1ccccc1OCCNC[C@H](O)c1ccc(O)c(O)c1,160,97,890,640,430,2200,300,420,120,210,50,170,,
CCC(NC(C)C)C(O)c1ccc(O)c2[nH]c(=O)ccc12 (centres undefined) [PROCATEROL],,33,,,86000,,,,,,,,,2600
COc1cc(CCNC[C@@H](O)c2ccc(O)c3[nH]c(=O)ccc23)ccc1OCCCc1ccccc1,300,23,6800,2900,2300,790,9200,,840,510,1800,,,
COc1cc(CCNC[C@H](O)c2ccc(O)c3c2OCC(=O)N3)ccc1OCCCc1ccccc1,5.1,0.25,4500,130,65,690,1400,4700,7,13,1900,98,13000,
COc1cc(CCNCCc2ccc(O)c3c2OCC(=O)N3)ccc1OCCCc1ccccc1,79,2.8,960,12,17,3.5,55,270,,,120,2.6,1100,
CCCN1CCC[C@@H]2Cc3n[nH]cc3C[C@H]21 [QUINPIROLE],,100000,,,,,,,,,,,,
